Measurements published in US10913736B2 (UNIVERSITY OF WASHINGTON, priority 2014, dated 2021).
Where “and” joins values, the source holds several entries; their conditions need not be identical. Equal entries are not always repeated. Where two headings read alike, the source gives them in different places.

Assays:
MetRS (T. brucei) = MetRS (T. brucei) (Trypanosoma brucei brucei, UniProt Q38C91); assay: MetRS (T. brucei) ATP depletion assay using Kinase-Glo; format: biochemical
T. cruzi = T. cruzi growth inhibition EC50; format: cell-based; settings: Trypanosoma cruzi; read-out: C) T. cruzi EC50
T. brucei = assay: Growth inhibition assay of T. brucei cell cultures (Alamar Blue, 48 h); format: cell-based
MetRS (S. aureus) = MetRS (S. aureus) (Staphylococcus aureus, UniProt Q5HII6); assay: biochemical; settings: ATP depletion, Kinase-Glo; read-out: H) MetRS (S. aureus) ATP depletion assay using Kinase-Glo with modified cpd dilution method, IC50
[1] = Trypanosoma brucei; read-out: B) T. brucei EC50

Chain of MetRS (T. brucei) (Q38C91 entry or part of it): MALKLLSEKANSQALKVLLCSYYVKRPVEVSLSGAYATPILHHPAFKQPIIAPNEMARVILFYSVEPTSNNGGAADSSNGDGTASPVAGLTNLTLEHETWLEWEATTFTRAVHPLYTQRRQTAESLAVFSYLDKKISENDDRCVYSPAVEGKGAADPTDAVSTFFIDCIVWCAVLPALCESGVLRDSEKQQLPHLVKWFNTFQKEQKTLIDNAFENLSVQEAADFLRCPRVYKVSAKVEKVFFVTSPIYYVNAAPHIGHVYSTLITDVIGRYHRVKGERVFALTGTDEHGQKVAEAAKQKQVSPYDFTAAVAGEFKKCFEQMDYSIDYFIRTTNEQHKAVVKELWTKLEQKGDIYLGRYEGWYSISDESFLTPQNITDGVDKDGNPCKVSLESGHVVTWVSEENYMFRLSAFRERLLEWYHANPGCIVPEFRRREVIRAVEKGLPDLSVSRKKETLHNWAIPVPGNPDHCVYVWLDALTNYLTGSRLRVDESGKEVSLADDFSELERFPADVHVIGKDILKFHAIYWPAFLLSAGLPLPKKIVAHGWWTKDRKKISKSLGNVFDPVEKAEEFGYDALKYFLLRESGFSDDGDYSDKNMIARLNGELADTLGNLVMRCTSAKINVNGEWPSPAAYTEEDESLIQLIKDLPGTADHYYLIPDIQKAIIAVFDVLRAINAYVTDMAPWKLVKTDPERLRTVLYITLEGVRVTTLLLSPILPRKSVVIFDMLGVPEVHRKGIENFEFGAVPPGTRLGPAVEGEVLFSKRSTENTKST
Chain of MetRS (S. aureus) (Q5HII6 whole entry): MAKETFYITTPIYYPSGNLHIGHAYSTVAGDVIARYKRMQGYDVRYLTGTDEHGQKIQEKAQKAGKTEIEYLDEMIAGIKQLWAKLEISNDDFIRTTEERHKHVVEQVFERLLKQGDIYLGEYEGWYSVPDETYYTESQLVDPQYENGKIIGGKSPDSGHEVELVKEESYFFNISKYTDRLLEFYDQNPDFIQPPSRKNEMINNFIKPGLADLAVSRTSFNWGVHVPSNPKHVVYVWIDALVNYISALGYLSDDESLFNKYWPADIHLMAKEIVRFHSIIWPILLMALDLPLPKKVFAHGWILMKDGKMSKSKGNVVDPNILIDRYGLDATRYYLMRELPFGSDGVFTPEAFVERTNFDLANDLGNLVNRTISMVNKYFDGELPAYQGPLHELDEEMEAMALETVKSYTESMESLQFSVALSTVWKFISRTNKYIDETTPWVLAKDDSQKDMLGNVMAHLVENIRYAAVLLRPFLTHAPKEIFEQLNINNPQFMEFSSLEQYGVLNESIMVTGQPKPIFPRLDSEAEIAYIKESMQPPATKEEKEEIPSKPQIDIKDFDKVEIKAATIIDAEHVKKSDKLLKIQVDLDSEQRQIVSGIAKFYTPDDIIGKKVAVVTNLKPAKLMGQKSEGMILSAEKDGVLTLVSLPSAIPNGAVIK

SMILES	IC50 (MetRS (T. brucei))	EC50 (T. cruzi)	EC50 (T. brucei; [1])	IC50 (MetRS (S. aureus))	EC50 (T. brucei; read-out: B) T. brucei EC50)
Clc1cc(Cl)cc(CNCCNc2nc3ccc(Cl)cc3[nH]2)c1 [Compound 1829, {2-[(6-chloro-1H-1,3-benzodiazol-2-yl)amino]ethyl}[(3,5-dichlorophenyl)methyl]amine]	85 nM	3040 nM	539 nM		
Clc1cc(Cl)cc(CNCCCc2nc3ccc(Cl)nc3[nH]2)c1 [Compound 1881, (3-{5-chloro-3H-imidazo[4,5-b]pyridin-2-yl}propyl)[(3,5-dichlorophenyl)methyl]amine]	35 nM	5870 nM	307 nM		
COc1ccc(Oc2nc(NCc3nc4ccc(F)nc4[nH]3)nc(NCc3nc4ccc(F)nc4[nH]3)n2)c(Cl)c1 [Compound 1883, 6-(2-chloro-4-methoxyphenoxy)-2-N,4-N-bis({5-fluoro-3H-imidazo[4,5-b]pyridin-2-yl}methyl)-1,3,5-triazine-2,4-diamine]	39 nM	17400 nM	5620 nM	333 nM	3670 nM
O=C1N[C@@H](Cc2ccc(Cl)cc2Cl)C(=O)N1Cc1nc2ccccc2[nH]1 [Compound 1754, (S)-3-((1H-benzo[d]imidazol-2-yl)methyl)-5-(2,4-dichlorobenzyl)imidazolidine-2,4-dione]	> 10000 nM	> 5000 nM	5890 nM		
CCN(CCNCc1cc(Cl)cc(Cl)c1)c1nc2nc(Cl)ccc2[nH]1 [Compound 1949, 5-chloro-N-(2-{[(3,5-dichlorophenyl)methyl]amino}ethyl)-N-ethyl-3H-imidazo[4,5-b]pyridin-2-amine]	18 nM	1310 nM	79.9 nM	606 nM	85.5 nM
COc1ccc(Oc2ccnc(NCc3nc4ccccc4[nH]3)c2)c(Cl)c1 [Compound 1933, N-((1H-benzo[d]imidazol-2-yl)methyl)-4-(2-chloro-4-methoxyphenoxy)pyridin-2-amine]	22 nM	1710 nM	102 nM	40 nM	
Clc1cc(Cl)c2c(c1)C(N[C@H]1CCCN(c3nc4nc(Cl)ccc4[nH]3)C1)CCN2 (stereo partly drawn) [Compound 1899, 6,8-dichloro-N—((S)-1-(5-chloro-1H-imidazo[4,5-b]pyridin-2-yl)piperidin-3-yl)-1,2,3,4-tetrahydroquinolin-4-amine]	89 nM	260 nM		323 nM	
CN(CCN(CCN(C)c1nc2nc(F)ccc2[nH]1)[C@@H]1CCNc2c(Cl)cc(Cl)cc21)c1nc2nc(F)ccc2[nH]1 [Compound 1939, (R)—N1-(6,8-dichloro-1,2,3,4-tetrahydroquinolin-4-yl)-N2-(5-fluoro-1H-imidazo[4,5-b]pyridin-2-yl)-N1-(2-((5-fluoro-1H-imidazo[4,5-b]pyridin-2-yl)(methyl)amino)ethyl)-N2-methylethane-1,2-diamine]	73 nM	176 nM		271 nM	
Cc1ccc2[nH]c(NCCCNCc3cc(Cl)cc(Cl)c3)nc2n1 [Compound 1599, N1-(3,5-dichlorobenzyl)-N3-(5-methyl-1H-imidazo[4,5-b]pyridin-2-yl)propane-1,3-diamine]	45 nM and 59 nM	2910 nM	662 nM		
CC(=O)N(CCCc1nc2nc(F)ccc2[nH]1)Cc1cc(Cl)cc(Cl)c1 [Compound 1835, N-(3,5-dichlorobenzyl)-N-(3-(5-fluoro-1H-imidazo[4,5-b]pyridin-2-yl)propyl)acetamide]	23 nM	> 20000 nM	873 nM		
Fc1ccc2[nH]c(N3CCCC(NCc4cc(Cl)cc(Cl)c4)C3)nc2n1 (centres unmarked) [Compound 1886, N-(3,5-dichlorobenzyl)-1-(5-fluoro-1H-imidazo[4,5-b]pyridin-2-yl) piperidin-3-amine]	14 nM	5160 nM	299 nM	505 nM	
CC(=O)N(CCN(C)c1nc2nc(Cl)ccc2[nH]1)[C@@H]1CCNc2c(Cl)cc(Cl)cc21 [Compound 1938, N-[2-({5-chloro-3H-imidazo[4,5-b]pyridin-2-yl}(methyl)amino)ethyl]-N-[(4R)-6,8-dichloro-1,2,3,4-tetrahydroquinolin-4-yl]acetamide]	36 nM	266 nM		1260 nM	
Fc1ccc2[nH]c(N3CCC[C@H](NCc4cc(Cl)cc(Cl)c4)C3)nc2n1 [Compound 1900, (S)—N-(3,5-dichlorobenzyl)-1-(5-fluoro-1H-imidazo[4,5-b]pyridin-2-yl)piperidin-3-amine]	27 nM	2240 nM	128 nM	303 nM	> 200 nM
OC(CNCc1cc(Cl)cc(Cl)c1)CNc1nc2cccnc2[nH]1 (centres unmarked) [Compound 1634, 1-((1H-imidazo[4,5-b]pyridin-2-yl)amino)-3-((3,5-dichlorobenzyl)amino)propan-2-ol]	133 nM	9760 nM	121 nM		
CC(Cc1nc2ccc(Cl)cc2[nH]1)NCc1cc(Cl)cc(Cl)c1 (centres unmarked) [Compound 1794, [1-(5-chloro-1H-1,3-benzodiazol-2-yl)propan-2-yl][(3,5-dichlorophenyl)methyl]amine]	31 nM and 17 nM and 72 nM and 70 nM	5230 nM	1330 nM	22600 nM	1870 nM and 1840 nM
CCOc1c(Br)cc(Br)cc1CN[C@H]1CCCN(c2nc3nc(Cl)ccc3[nH]2)C1 [Compound 1910, (S)-1-(5-chloro-1H-imidazo[4,5-b]pyridin-2-yl)-N-(3,5-dibromo-2-ethoxybenzyl)piperidin-3-amine]	19 nM	934 nM	39.5 nM	22 nM	
C[C@@H](Cc1nc2ccc(Cl)cc2[nH]1)NCc1cc(Cl)cc(Cl)c1 [Compound 1805, [(2S)-1-(6-chloro-1H-1,3-benzodiazol-2-yl)propan-2-yl][(3,5-dichlorophenyl)methyl]amine]	56 nM and 27 nM	5610 nM	1690 nM	> 1000 nM	
NN(C(=O)/C=C/Oc1ccc(Cl)cc1Cl)c1nc2ccccc2[nH]1 [Compound 1766, (2E)-N-(1H-1,3-benzodiazol-2-yl)-3-(2,4-dichlorophenoxy)prop-2-enehydrazide]	297 nM	> 5000 nM	3530 nM		
CC(=O)N(Cc1cc(Cl)cc(Cl)c1)C1CCCC(c2nc3nc(Cl)ccc3[nH]2)C1 (centres unmarked) [Compound 1789, N-(3-(5-chloro-1H-imidazo[4,5-b]pyridin-2-yl)cyclohexyl)-N-(3,5-dichlorobenzyl)acetamide]	89 nM	4990 nM	2810 nM		
CC(=O)N(Cc1cc(Cl)cc(Cl)c1)C1CCCC(c2nc3nc(F)ccc3[nH]2)C1 (centres unmarked) [Compound 1801, N-(3,5-dichlorobenzyl)-N-(3-(5-fluoro-1H-imidazo[4,5-b]pyridin-2-yl)cyclohexyl)acetamide]	533 nM and 569 nM	252 nM			
O=C(Cc1cc(Cl)cc(Cl)c1)NCc1nc2ccc(Cl)nc2[nH]1 [Compound 1875, N-({5-chloro-3H-imidazo[4,5-b]pyridin-2-yl}methyl)-2-(3,5-dichlorophenyl)acetamide]	38 nM	13100 nM	1900 nM		
Clc1cc(Cl)cc(CNCCc2nc3ncc(Cl)cc3[nH]2)c1 [Compound 1844, (2-{6-chloro-3H-imidazo[4,5-b]pyridin-2-yl}ethyl)[(3,5-dichlorophenyl)methyl]amine]	60 nM	5420 nM	598 nM		
N#Cc1cc(Cl)cc(CN[C@H]2CCCN(c3nc4nc(Cl)ccc4[nH]3)C2)c1 [Compound 1992, (S)-3-chloro-5-(((1-(5-chloro-1H-imidazo[4,5-b]pyridin-2-yl)piperidin-3-yl)amino)methyl)benzonitrile]	14 nM	2130 nM	111 nM		
CCOc1c(Cl)cc(Cl)cc1CNCCN(C)c1nc2nc(Cl)ccc2[nH]1 [Compound 1925, 5-chloro-N-(2-{[(3,5-dichloro-2-ethoxyphenyl)methyl]amino}ethyl)-N-methyl-3H-imidazo[4,5-b]pyridin-2-amine]	15 nM		314 nM	266 nM	
CN(CCN(Cc1cc(Cl)cc(Cl)c1)C(=O)CCN)c1nc2nc(Cl)ccc2[nH]1 [Compound 1958, 3-amino-N-[2-({5-chloro-1H-imidazo[4,5-b]pyridin-2-yl}(methyl)amino)ethyl]-N-[(3,5-dichlorophenyl)methyl]propanamide]	13 nM		62.4 nM	381 nM	33.1 nM
Clc1cc(Cl)cc(CNC2CCCC(c3nc4nc(Cl)ccc4[nH]3)C2)c1 (centres unmarked) [Compound 1788, 3-(5-chloro-1H-imidazo[4,5-b]pyridin-2-yl)-N-(3,5-dichlorobenzyl)cyclohexanamine]	124 nM	4170 nM	359 nM		
Clc1ccc(CNC2CCCC(c3nc4nc(Cl)ccc4[nH]3)C2)c(Cl)c1 (centres unmarked) [Compound 1809, 3-(5-chloro-1H-imidazo[4,5-b]pyridin-2-yl)-N-(2,4-dichlorobenzyl) cyclohexanamine]	43 nM	3460 nM	821 nM		
N#Cc1c(NCCCNCc2cc(Cl)cc(Cl)c2)[nH]c2cccnc12 [Compound 1627, 2-(3-(3,5-dichlorobenzylamino)propylamino)-1H-pyrrolo[3,2-b]pyridine-3-carbonitrile]	61 nM	623 nM	> 9.08 nM		4.6 nM
Fc1ccc2nc(NCCCNc3cc(Cl)cc(Cl)c3)[nH]c2n1 [Compound 1954, 3,5-dichloro-N-[3-({5-fluoro-3H-imidazo[4,5-b]pyridin-2-yl}amino)propyl]aniline]	61 nM		369 nM	928 nM	565 nM
O=C(CNc1nc2ccc(Cl)nc2[nH]1)NCc1cc(Cl)cc(Cl)c1 [Compound 1970, 2-((5-chloro-3H-imidazo[4,5-b]pyridin-2-yl)amino)-N-(3,5-dichlorobenzyl)acetamide]	69 nM		2980 nM	1080 nM	
